Results published in US20230099204A1, “PHARMACEUTICAL COMPOSITION FOR PREVENTION OR TREATMENT OF CANCER IN WHICH KRAS MUTATION AND ACTIVATED RON ARE PRESENT” (WELLMARKER BIO CO., LTD., priority 2020, published 2023).

What was measured:
SNUC2A = assay: MTS assay, cytotoxicity on colorectal cancer cell line SNUC2A; assay type: cell-based; conditions: RON mutation negative, KRAS G12D, 72 hours
Procedure: (§1) MTS assay was performed to compare cytotoxicity of the compounds of Example 1, Example 2, Example 3, Example 4, Example 5, Example 6, and positive control 1 on a colorectal cancer cell line, and a cell death rate of the colorectal cancer cell line was analyzed to compare anticancer activity of the compounds.
(§2) The MTS assay was performed by seeding each colorectal cell line in a 96-well plate at 1,000 cells per well, and after 24 hours, performing treatment with the compounds of Examples 1 to 6 and positive control 1 at various concentrations (0.000001 μM to 10 μM) in 100 μL of 10% FBS-RPMI medium (WELGENE Inc.) per well. The cells were incubated for 72 hours. Then, 20 μL of MTS solution (Promega) was added thereto, and the cells were incubated for 2 hours. Then, the absorbance was measured at 490 nm. The IC50 values for the compounds of Examples 1 to 6 and positive control 1 were calculated using GraphPad Prism™ 5 to investigate cytotoxicity.

SW620 = assay: MTS assay, cytotoxicity on colorectal cancer cell line SW620; assay type: cell-based; conditions: Homo sapiens, SW-620, RON Δ155, KRAS G12V, 72 hours
Procedure: as §1, §2

[1] = test system: colorectal cancer patient-derived cell lines; assay: Cell death induction (cleaved caspase 3 staining) in colorectal cancer patient-derived cell lines; assay type: cell-based, human; conditions: 1 μM, FIG. 4
HCT8 [2] = assay: Cell death induction, trypan blue cell counting, HCT8; assay type: cell-based, human; conditions: HCT8 (pTyr-wtRON); 1 μM; 48 hours; FIG. 1
Procedure: (§3) Based on the results above, to identify the cell death-inducing ability of the compounds of Example 1 and positive control 1, which are representative materials, preparation was performed by seeding respective colorectal cancer cell lines SNU-[…], HCT8, T84, and SW620 onto 60-mm plates at 3×10^5 cells, and then incubation was performed for 24 hours. Thereafter, treatment with each of Example 1 and positive control 1 was performed at 1μM and incubation was performed for 48 hours. After 48 hours, the cells and cell suspensions were collected by treatment with trypsin, resuspended in 1× PBS and stained using a trypan blue solution (Sigma, cat# T8154). The stained cells were counted using a hemocytometer. Cell counting was repeated, and the mean and the standard deviation were calculated.

T84 [3] = assay: Cell death induction, trypan blue cell counting, T84; assay type: cell-based; conditions: T84 with a RON mutation; 1 μM; 48 hours; FIG. 1
Procedure: as §3

HCT8 [4] = assay: MTS assay, cytotoxicity on colorectal cancer cell line HCT8; assay type: cell-based; conditions: Homo sapiens, HCT-8, RON wt, KRAS G13D, 72 hours
Procedure: as §1, §2

SW480 = assay: MTS assay, cytotoxicity on colorectal cancer cell line SW480; assay type: cell-based; conditions: Homo sapiens, RON Δ155, KRAS G12V, 72 hours
Procedure: as §1, §2

SNU-C2A = assay: Cell death induction, trypan blue cell counting, SNU-C2A; assay type: cell-based; conditions: SNUC2A with inactive RON; 1 μM; 48 hours; FIG. 1
Procedure: as §3

[5] = test system: SW620 (KRAS G12V/mRON Δ155); assay: Mechanism of action in SW620 overexpressing β-catenin (trypan blue exclusion, Western blotting); assay type: cell-based, human
Procedure: Each of an empty vector and human beta-catenin pcDNA3.1 (Plasmid #16828, Addgene) that is a vector into which β-catenin DNA (X87838.1, GENE ID: 1499) is introduced, was transfected into the human colorectal cancer patient-derived cell line SW620 (KRAS G12V/mRON […]), and then treatment with the compound of Example 1 was performed. Subsequently, all cells were collected when 48 hours had elapsed. Cell death induction efficacy was compared and analyzed using a trypan blue exclusion assay. As described above, the cell line SW620 was caused to overexpress β-catenin. Then, treatment with the compound of Example 1 was performed, and cell death induction efficacy was observed. In addition, as described above, the cell line SW 620 was caused to overexpress β-catenin. Then, the sample treated with the compound of Example 1 was used to identify expressions of β-catenin, p-ERK, ERK, c-myc, cyclin D1, pTyr-mRON, mRON, and cleaved caspase 3 with Western blotting.

[6] = test system: HCT15 (KRAS G13D/mRON Δ160); assay: Cell line HCT15-transplanted mouse model; assay type: in vivo, BALB/c nude mice
Procedure: 5-Week-old female BALB/c nude mice were purchased and acclimatized for 1 week. Then, human colorectal cancer patient-derived cell line HCT15 (KRAS G13D/mRON Δ160) at 5×10^6 cells/mouse was injected subcutaneously (100 μL) into the right dorsal side of the mice. The compound of Example 1 was orally administered when the tumor reached a size of about 100 mm^3 The drug was administered once a day for 4 weeks, and tumor size and mouse body weight were measured twice a week.
After completion of the drug administration, the tumor tissues were analyzed.

DLD1 = assay: MTS assay, cytotoxicity on colorectal cancer cell line DLD1; assay type: cell-based; conditions: Homo sapiens, DLD-1, RON wt, KRAS G13D, 72 hours
Procedure: as §1, §2

T84 [7] = assay: MTS assay, cytotoxicity on colorectal cancer cell line T84; assay type: cell-based; conditions: Homo sapiens, RON Δ165, KRAS G13D, 72 hours
Procedure: as §1, §2

[8] = test system: SW620 (KRAS G12V/mRON Δ155); assay: Cell line SW620-transplanted mouse model; assay type: in vivo, BALB/c nude mice
Procedure: 5-Week-old female BALB/c nude mice were purchased and acclimatized for 1 week. Then, human colorectal cancer patient-derived cell line SW620 (KRAS
G12V/mRON Δ155) at 5×10^6 cells/mouse was injected subcutaneously (100 μL) into the right dorsal side of the mice. The compound of Example 1 was orally administered when the tumor reached a size of about 100 mm^3. The drug was administered once a day for 4 weeks, and tumor size and mouse body weight were measured twice a week. After completion of the drug administration, the experimental animals were euthanized, and then the tumors were extracted and weighed for comparative analysis.
A portion of the extracted tumor tissue was fixed in 10% formalin and processed into a paraffin block. Then, the block was made into sections. Staining of the slide was performed through immunochemical staining. Another portion of the extracted tumor tissue was subjected to lysis, and then Western blotting was used to identify changes in expression of respective proteins.

[9] = immunochemical staining, FIG. 7

CCOc1ccn(-c2ccc(F)cc2)c(=O)c1C(=O)Nc1ccc(Oc2ccnc3cc(-c4ccc(CN5CCOCC5)cn4)sc23)c(F)c1.Cl [Example 1, 4-ethoxy-N-[3-fluoro-4-({2-[5-(morpholinomethyl)pyridine-2-yl]thieno[3,2-b]pyridine-7-yl}oxy)phenyl]-1-(4-fluorophenyl)-2-oxo-1,2-dihydropyridine-3-carboxamide hydrochloride]
IC50 (SNUC2A): 5780 nM | IC50 (SW620): 320 nM | cell death induction efficacy ([1]; patient-derived cell line expressing a RON mutation or pTyr-wtRON): exhibited cell death induction efficacy | cell death induction efficacy ([1]; patient-derived cell line with inactive RON): did not exhibit cell death induction efficacy | cell death induction efficacy (HCT8 [2]): cell-killing efficacy was exhibited | cell death induction efficacy (T84 [3]): cell death induction efficacy was exhibited regardless of mutation type | IC50 (HCT8 [4]): 420 nM | IC50 (SW480): 340 nM | cell death induction efficacy (SNU-C2A): no response | expression of pTyr-mRON ([5]; SW620, empty vector or β-catenin overexpressed, Western blotting, FIG. 11): decreased by the compound of Example 1 regardless of β-catenin | cell death induction efficacy ([5]; SW620 overexpressing β-catenin, 48 hours, trypan blue exclusion, FIG. 10): cell death induction efficacy of the compound was decreased | expression of p-ERK, c-myc, and cyclin D1 ([5]; SW620 transfected with the empty vector, Western blotting, FIG. 11): decreased | expression of p-ERK, c-myc, and cyclin D1 ([5]; SW620 with β-catenin overexpressed, Western blotting, FIG. 11): increased again | expression of cleaved caspase 3 in tumor tissue ([6]; FIG. 13): induced expression | expression of cyclin D1 (PD marker) in tumor tissue ([6]; FIG. 13): decreased expression | expression of pTyr-mRON in tumor tissue ([6]; FIG. 13): decreased expression | tumor growth inhibitory efficacy ([6]; oral, once a day for 4 weeks, FIG. 12): high tumor growth inhibitory efficacy | IC50 (DLD1): 240 nM | IC50 (T84 [7]): 350 nM | Tumor growth inhibition (TGI, %) ([8]; 30 mg/kg, oral, once a day for 4 weeks): 79.2 ± 2.2% | expression of cleaved caspase 3 in tumor tissue [8, 9]: induced expression | expression of cyclin D1 (PD marker) in tumor tissue [8, 9]: decreased expression | expression of pTyr-RON in tumor tissue [8, 9]: decreased expression | tumor growth inhibitory efficacy ([8]; oral, 4 weeks, Table 5, FIG. 5, FIG. 6): high tumor growth inhibitory efficacy
